{"source": "paper PMC12030314", "about": "“Biomarker-Driven Pharmacokinetics and Efficacy of Polymyxin B in Critically Ill Patients with XDR-GN Pneumonia” (Pharmaceuticals, 2025)", "key": {"PK/PD targets attainment": {"assay": "PK/PD targets attainment", "assay_type": "in vivo, human", "protocol": "The primary PD response was evaluated by PK/PD indices. An AUCss,0–24h of 50–100 mg·hour/L or a Css,avg of 2–4 mg/L was used as the PK/PD targets for PMB. The secondary PD response was evaluated by clinical parameters. An achievement of the treatment success at the end of treatment was defined by either (1) physicians’ judgment of improvement in signs and symptoms (reasonable compromise on the basis of survival, stable, or improved haemodynamics and oxygenation index and improved chemical and physiological indices of infection) or (2) microbiological elimination. […] The percentage of patients who achieved the PK/PD targets or treatment success was calculated. Variables potentially related to clinical efficacy were assessed. Receiver operating characteristic (ROC) curves were drawn to investigate and compare different indices as predictors of clinical efficacy. The optimal cutoff point for the PK/PD indices was calculated with the Youden index."}, "[1]": {"assay": "Plasma pharmacokinetics of intravenous PMB in critically ill patients (UPLC-MS/MS; noncompartmental and two-compartment analysis)", "assay_type": "in vivo, human", "settings": "for Cmax: read-out: Css,max; for AUC(0-t): read-out: AUCss,0–24h", "protocol": "The patients received a 100 mg loading dose followed by a maintenance dose of 50 mg every 12 h. PMB was administered by short-term infusions (60 min). Blood samples were collected from each patient in three stages.\nPhase of first dose: Blood samples were collected at defined time points to capture PK data.\nPhase of steady state: Although a steady state of PMB concentration can be achieved after 48 h of treatment, considering the special condition of critically ill patients, blood samples were collected immediately before the initiation of the seventh dose (trough) and immediately at the end of the seventh dose (peak).\nDuring the last dose phase, blood samples were collected immediately before the initiation of the last dose, immediately at the end of the last dose, and randomly (at least eight blood samples for each person) at 1.5, 2, 2.5, 3, 5, 7, 9, 12, 15, 19, 24, 48, and 72 h after completing the infusion.\nBlood and BAL samples were centrifuged for 10 min (3000 rpm) and immediately stored at −80 °C until analysis.\nPMB concentrations in the samples were quantified by monitoring the total concentrations of polymyxin B1 (PB1), polymyxin B2 (PB2), polymyxin B3 (PB3), and isoleucine polymyxin B1 (I-PB1) via a validated ultraperformance liquid chromatography–tandem mass spectrometry (UPLC-MS/MS) assay. The standard substances, including PB1 (CAS P037), PB2 (CAS P037), PB3 (CAS P040), and I-PB1 (CAS P038), were purchased by TOKU-E Company (>99% pure, Bellingham, WA, USA). ACQUITY UPLC system, Quattro PremierXE triple quadrupole mass spectrometer, electrospray isonizaiton source (ESI), and Masslynx 4.1 data processing software were used in this study (Waters Company, Milford, MA, USA). An Acquity UPLC BEH C18 column (50 mm × 2.1 mm internal diameter, 1.8 μm) purchased from Waters (Milford, MA, USA) was used. The mobile phase comprised a 0.2% formic acid aqueous solution and a 0.2% formic acid acetonitrile solution, and the flow rate was 0.3 mL/min. Mass spectrometric detection was performed in positive electrospray ionization (ESI+) mode with multiple reaction monitoring (MRM). The optimized transitions were set as follows: m/z 602.7→101.0 for PB1 and I-PB1, m/z 595.7→100.9 for PB2 and PB3, and […] for the internal standard norvancomycin. Plasma and BAL supernatant was aliquoted into microcentrifuge tubes and sequentially treated with 20 μL norvancomycin or 200 μL 5% trichloroacetic acid. 1 μL plasma and 2 μL BAL of supernatant were collected separately for the detection of PMB concentrations.\nAnalysis of independently prepared quality control samples indicated good reproducibility (coefficients of variation ≤ 8.39%) and accuracy (measured concentrations ≤ 10.0% from target concentrations). The standard curve was linear over the range of 0.5 to 10,000 ng/mL, with precision and accuracy of less than 15%. The regression coefficient was 0.9985. The relative standard deviation values for the intra- and inter-day precision at low, middle, and high levels were all less than 6%, and the recovery rate was 83.1–85.4%.\nThe plasma concentration–time values for PMB were analysed via Phoenix WinNonlin 8.1. The data were explored via noncompartmental and two-compartment PK models. The principles for final model selection were a low Akaike information criterion (AIC), visual evaluation of individual plasma concentration–time profiles, and precision of parameter estimations on the basis of one sample t-test or the correlation coefficient. The following PK parameters were generated via noncompartmental and two-compartment analysis: Cmax, CL, Vd, t1/2, k, and AUC was determined via the linear trapezoidal rule. The PMB Css,avg was calculated from the Cmax and Cmin that were directly obtained from the observed peak and trough concentrations in the stable state. The simulated concentrations were obtained via compartment PK models. Factors that affect PMB PK parameters were also evaluated."}, "plasma protein": {"tested_on": "plasma protein", "assay": "Binding of PMB in plasma, rapid equilibrium dialysis", "assay_type": "in vitro ADME", "settings": "human, rapid equilibrium dialysis (Pierce RED), pooled patient plasma pH 7.4, 300 μL against PBS pH 7.4, 37 °C, triplicate, mean, read-out: plasma protein-binding ratio (converted)", "protocol": "The plasma protein binding of PMB was determined by rapid equilibrium dialysis device purchased from Thermo Scientific™ (Pierce RED, CAS90006, Rockford, IL, USA). For each patient, three plasma samples (totaling approximately 1 ml) were pooled (pH adjusted to 7.4), and the test was performed in triplicate. For each, 300 μL was dialyzed against an equal volume of isotonic phosphate-buffered saline (pH 7.4) at 37 °C for 4 h. PMB concentrations were determined, and the extent of protein binding was calculated as 1 minus the ratio of the PMB concentration in the buffer to that in the plasma and is expressed as a percentage."}, "[2]": {"tested_on": "XDR-GN bacterial nosocomial pneumonia", "assay": "Clinical efficacy (treatment success) of PMB", "assay_type": "in vivo, human", "settings": "27 enrolled patients; iv 100 mg loading, 50 mg q12h", "text": "The decision to administer PMB was made by the attending physicians. Patients with conditions that could alter the PK of PMB, who had rapidly declining or fluctuating renal function (serum creatinine ± 50% since the start of therapy, who could affect the removal of drugs from the body), who were pregnant (hormone levels, increased blood volume, and other factors affecting drug processes), who had severe burns/head/spinal cord injury (high metabolic status, fluid redistribution, reduced plasma protein levels, and other factors affecting drug processes), who had cystic fibrosis (decreased distribution of PMB in lungs), or who were severely under- or overweight (±40% of ideal body weight, changes of fat volume, and body surface area affecting drug processes) were excluded. The study was approved by the Ethics Committees of Peking Union Medical College Hospital and the Declaration of Helsinki. Written informed consent was obtained from all patients or their legal representatives.\nThe primary PD response was evaluated by PK/PD indices. […] The secondary PD response was evaluated by clinical parameters. […] The percentage of patients who achieved the PK/PD targets or treatment success was calculated. Variables potentially related to clinical efficacy were assessed. […] The optimal cutoff point for the PK/PD indices was calculated with the Youden index."}, "[3]": {"settings": "27 critically ill patients, iv 100 mg loading, 50 mg q12h, noncompartmental analysis after last dose, mean"}, "[4]": {"settings": "Treatment Failure (n = 5), median [IQR]"}, "[5]": {"settings": "human, plasma, iv, 50 mg, Treatment Success (n = 22), median [IQR]"}, "[6]": {"settings": "human, plasma, iv, 50 mg, Table 2, 27 enrolled patients, mean"}}, "note": "Like-named read-outs stand apart in the source and are kept apart here. Where a SMILES comes first, the peptide text is derived from it. Bridges are numbered along the chain shown (N, C = ends). [ ]: non-standard residue; d: D form. The star is where a group is joined. X1 = CC[C@H](C)CCCCC(=O)*; Dab = NCC[C@H](N)C(=O)O"}
{"smiles": "CC[C@H](C)CCCCC(=O)N[C@@H](CCN)C(=O)N[C@H](C(=O)N[C@@H](CCN)C(=O)N[C@H]1CCNC(=O)[C@H]([C@@H](C)O)NC(=O)[C@H](CCN)NC(=O)[C@H](CCN)NC(=O)[C@H](CC(C)C)NC(=O)[C@@H](Cc2ccccc2)NC(=O)[C@H](CCN)NC1=O)[C@@H](C)O", "note": "[PMB, polymyxin B] (X1-[Dab]T[Dab][Dab][Dab][dF]L[Dab][Dab]T; lactam 4-C)", "values": [{"measurement": "treatment success among patients who reached the target Css,avg of 2–4 mg/L", "setting": "PK/PD targets attainment; 9 patients", "result": 77.78, "unit": "%"}, {"measurement": "treatment success among patients who reached the target AUCss,0–24h of 50–100", "setting": "PK/PD targets attainment; 13 patients", "result": 76.95, "unit": "%"}, {"measurement": "treatment success among patients who exceeded the target AUCss,0–24h", "setting": "PK/PD targets attainment; in vivo", "result": 92.31, "unit": "%"}, {"measurement": "half-life (t1/2)", "setting": "[1]; [3]", "result": 19.56, "unit": "h"}, {"measurement": "volume of distribution (Vd)", "setting": "[1]; [3]", "result": 30.44, "unit": "L"}, {"measurement": "Css,avg", "setting": "[1]; Table 2, 27 enrolled patients, mean", "result": 5.1, "unit": "µg/mL"}, {"measurement": "Css,avg", "setting": "[1]; Total (n = 27), median [IQR]", "result": "5.2 [3.8, 5.9]"}, {"measurement": "Css,max", "setting": "[1]; Total (n = 27), median [IQR]", "result": "8.7 [6.6, 10.1]"}, {"measurement": "Css,avg", "setting": "[1]; [4]", "result": "6.6 [5.9, 7.7]"}, {"measurement": "Css,max", "setting": "[1]; [4]", "result": "11.1 [9.9, 11.4]"}, {"measurement": "Css,avg", "setting": "[1]; Treatment Success (n = 22), median [IQR]", "result": "5.0 [3.7, 5.5]"}, {"measurement": "Cmax", "setting": "[1]; human, plasma, iv, 50 mg, Table 2, 27 enrolled patients, iv 100 mg loading, 50 mg q12h, mean", "result": 8300, "unit": "ng/mL"}, {"measurement": "AUC(0-t)", "setting": "[1]; human, plasma, iv, 50 mg, Total (n = 27), median [IQR]", "result": 101, "unit": "µg·h/mL"}, {"measurement": "AUC(0-t)", "setting": "[1]; human, plasma, iv, 50 mg, Treatment Failure (n = 5), median [IQR]", "result": 64.7, "unit": "µg·h/mL"}, {"measurement": "AUC(0-t)", "setting": "[1]; [5]", "result": 112, "unit": "µg·h/mL"}, {"measurement": "Cmax", "setting": "[1]; [5]", "result": 8700, "unit": "ng/mL"}, {"measurement": "Vd", "setting": "[1]; [6]", "result": 30.4, "unit": "L"}, {"measurement": "clearance", "setting": "[1]; [6]", "result": 26.7, "unit": "mL/min"}, {"measurement": "half-life", "setting": "[1]; [6]", "result": 19.6, "unit": "h"}, {"measurement": "AUC(0-t)", "setting": "[1]; [6]", "result": 110, "unit": "µg·h/mL"}, {"measurement": "fraction unbound at 4 h", "setting": "plasma protein", "result": 0.145}, {"measurement": "treatment success (response rate)", "setting": "[2]", "result": 81.48, "unit": "%"}]}
